Like-named read-outs stand apart in the source and are kept apart here.
What was measured:
Format in all cases: cell-based, mouse
[1] = test system: β-galactosidase in CMV-LacZ C2C12 myoblasts; assay: CMV-LacZ secondary screen in C2C12 myoblasts (β-Gal stabilizing assay); conditions: CMV-LacZ C2C12 myoblasts
Source text: In order to determine compounds that acted to stabilize β-gal in myogenic cells, a CMV-LacZ C2C12 cell line was used in a secondary screen. The EGFP gene from the pEGFP (Clontech) vector was replaced by LACZ PCR product with digests of the vector/PCR product performed using EcoRI (NEB) and NotI (NEB) and ligated using T4 DNA Ligase (NEB) following standard procedures to produce the CMV-LACZ vector. The LACZ gene was generated by PCR from the pBK-RSV (Stratagene) vector using primers LACZ EcoRI F- and LACZ NotI R-. The CMV-LACZ vector was then digested with AfIII (NEB) to linearize the construct, which was then transfected in C2C12 myoblasts using Lipofectamine 2000 (Invitrogen) following the manufacturer's instructions. […] Clonal lines were selected and screened for βgal levels using the myoblast FDG assay.
The assays were used the original 96-well format and new dose-response curves for myoblasts (N=3-6 replicates for each data point), myotubes (N=3-6 replicates for data point), and CMV-LacZ secondary assay (N=2 replicates for each data point) using concentrations of 0.5 μM, 1 μM, 5 μM, 10 μM, 20 μM, and 40 μM (Tables 9-16).

[2] = test system: β-galactosidase in CMV-LacZ C2C12 myotubes; assay: CMV-LacZ secondary screen in C2C12 myotubes (β-Gal stabilizing assay); conditions: C2C12 CMV-LacZ myotubes, fold relative to DMSO
Outline: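 β-gal stabilization was measured in C2C12 myoblasts or myotubes stably transfected with a CMV-driven LacZ construct, using the FDG β-gal assay. Compounds were tested in dose-response at 0.5, 1, 5, 10, 20 and 40 μM, with two replicates per point.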

[3] = test system: α7 integrin (LacZ reporter in α7βgal+/− myoblasts); assay: Myoblast α7+/LacZ integrin FDG assay (Burkin assay in myoblasts, 96-well); conditions: α7+/LacZ myoblasts, 96-well; for fold induction at 0.5 µM / fold induction at 1 µM / fold induction at 5 µM / fold induction at 10 µM / fold induction at 20 µM / fold induction at 40 µM: Mus musculus, Myoblast, 48 h
[4] = test system: α7 integrin (LacZ reporter in α7+/LacZ myotubes); assay: Myotube α7 integrin FDG assay (Burkin assay in myotubes, 96-well); conditions: myotubes; for fold induction at 0.5 µM / fold induction at 1 µM / fold induction at 5 µM / fold induction at 10 µM / fold induction at 20 µM / fold induction at 40 µM: Mus musculus, Myotube

CCOC(=O)C1CCCN(C(=O)CNS(=O)(=O)c2ccc(Br)s2)C1 (stereo not drawn) [MLS000086970-01]
CMV-LACZ in Myoblasts (β-galactosidase activity relative to DMSO) ([1]; 0.5 uM): 0.9925 | CMV-LACZ in Myoblasts (β-galactosidase activity relative to DMSO) ([1]; 1 uM): 1.0504 | CMV-LACZ in Myoblasts (β-galactosidase activity relative to DMSO) ([1]; 5 uM): 0.8994 | CMV-LACZ in Myoblasts (β-galactosidase activity relative to DMSO) ([1]; 10 uM): 0.9068 | CMV-LACZ in Myoblasts (β-galactosidase activity relative to DMSO) ([1]; 20 uM): 1.0197 | CMV-LACZ in Myoblasts (β-galactosidase activity relative to DMSO) ([1]; 40 uM): 0.8880 | fold induction at 0.5 µM ([2]; Mus musculus, C2C12, read-out: CMV-LACZ in Myotubes, signal relative to DMSO, 0.5 uM): 0.967 | fold induction at 1 µM ([2]; Mus musculus, C2C12, read-out: CMV-LACZ in Myotubes, signal relative to DMSO, 1 uM): 0.885 | fold induction at 5 µM ([2]; Mus musculus, C2C12, read-out: CMV-LACZ in Myotubes, signal relative to DMSO, 5 uM): 1.11 | fold induction at 10 µM ([2]; Mus musculus, C2C12, read-out: CMV-LACZ in Myotubes, signal relative to DMSO, 10 uM): 0.974 | fold induction at 20 µM ([2]; Mus musculus, C2C12, read-out: CMV-LACZ in Myotubes, signal relative to DMSO, 20 uM): 0.987 | fold induction at 40 µM ([2]; Mus musculus, C2C12, read-out: CMV-LACZ in Myotubes, signal relative to DMSO, 40 uM): 0.988 | fold induction at 0.5 µM ([3]; 0.5 uM, read-out: Burkin Assay in Myoblasts, signal relative to DMSO): 0.982 | fold induction at 0.5 µM ([3]; 0.5 uM, read-out: Burkin Assay in Myoblasts, value relative to DMSO): 1.01 | fold induction at 1 µM ([3]; 1 uM, read-out: Burkin Assay in Myoblasts, signal relative to DMSO): 1.07 | fold induction at 1 µM ([3]; 1 uM, read-out: Burkin Assay in Myoblasts, value relative to DMSO): 1.2 | fold induction at 5 µM ([3]; 5 uM, read-out: Burkin Assay in Myoblasts, signal relative to DMSO): 0.858 | fold induction at 5 µM ([3]; 5 uM, read-out: Burkin Assay in Myoblasts, value relative to DMSO): 1.6 | fold induction at 10 µM ([3]; 10 uM, read-out: Burkin Assay in Myoblasts, signal relative to DMSO): 0.872 | fold induction at 10 µM ([3]; 10 uM, read-out: Burkin Assay in Myoblasts, value relative to DMSO): 0.955 | fold induction at 20 µM ([3]; 20 uM, read-out: Burkin Assay in Myoblasts, signal relative to DMSO): 0.854 | fold induction at 20 µM ([3]; 20 uM, read-out: Burkin Assay in Myoblasts, value relative to DMSO): 1.02 | fold induction at 40 µM ([3]; 40 uM, read-out: Burkin Assay in Myoblasts, signal relative to DMSO): 0.781 | fold induction at 40 µM ([3]; 40 uM, read-out: Burkin Assay in Myoblasts, value relative to DMSO): 0.934 | fold induction at 0.5 µM ([4]; 0.5 uM, read-out: Burkin Assay in Myotubes (signal relative to DMSO)): 0.953 | fold induction at 1 µM ([4]; 1 uM, read-out: Burkin Assay in Myotubes (signal relative to DMSO)): 0.922 | fold induction at 5 µM ([4]; 5 uM, read-out: Burkin Assay in Myotubes (signal relative to DMSO)): 1.09 | fold induction at 10 µM ([4]; 10 uM, read-out: Burkin Assay in Myotubes (signal relative to DMSO)): 0.961 | fold induction at 20 µM ([4]; 20 uM, read-out: Burkin Assay in Myotubes (signal relative to DMSO)): 0.931 | fold induction at 40 µM ([4]; 40 uM, read-out: Burkin Assay in Myotubes (signal relative to DMSO)): 0.887 | fold induction at 0.5 µM ([4]; 0.5 uM, read-out: Burkin Assay in Myotubes, α7 integrin LacZ reporter signal relative to DMSO): 1 | fold induction at 1 µM ([4]; 1 uM, read-out: Burkin Assay in Myotubes, α7 integrin LacZ reporter signal relative to DMSO): 1.09 | fold induction at 5 µM ([4]; 5 uM, read-out: Burkin Assay in Myotubes, α7 integrin LacZ reporter signal relative to DMSO): 0.864 | fold induction at 10 µM ([4]; 10 uM, read-out: Burkin Assay in Myotubes, α7 integrin LacZ reporter signal relative to DMSO): 0.958 | fold induction at 20 µM ([4]; 20 uM, read-out: Burkin Assay in Myotubes, α7 integrin LacZ reporter signal relative to DMSO): 0.961 | fold induction at 40 µM ([4]; 40 uM, read-out: Burkin Assay in Myotubes, α7 integrin LacZ reporter signal relative to DMSO): 0.971

CCN(CC)C(=O)c1sc2nc(-c3ccc(OC)cc3)cn2c1C [MLS000089464-01]
CMV-LACZ in Myoblasts (β-galactosidase activity relative to DMSO) ([1]; 0.5 uM): 0.9117 | CMV-LACZ in Myoblasts (β-galactosidase activity relative to DMSO) ([1]; 1 uM): 0.9160 | CMV-LACZ in Myoblasts (β-galactosidase activity relative to DMSO) ([1]; 5 uM): 0.9372 | CMV-LACZ in Myoblasts (β-galactosidase activity relative to DMSO) ([1]; 10 uM): 1.1969 | CMV-LACZ in Myoblasts (β-galactosidase activity relative to DMSO) ([1]; 20 uM): 0.7500 | CMV-LACZ in Myoblasts (β-galactosidase activity relative to DMSO) ([1]; 40 uM): 0.5274 | CMV-LACZ in Myotubes, signal relative to DMSO ([2]; 0.5 uM): 0.9716 | CMV-LACZ in Myotubes, signal relative to DMSO ([2]; 1 uM): 1.3716 | CMV-LACZ in Myotubes, signal relative to DMSO ([2]; 5 uM): 0.9400 | CMV-LACZ in Myotubes, signal relative to DMSO ([2]; 10 uM): 0.9529 | CMV-LACZ in Myotubes, signal relative to DMSO ([2]; 20 uM): 1.3067 | CMV-LACZ in Myotubes, signal relative to DMSO ([2]; 40 uM): 1.0178 | Burkin Assay in Myoblasts, signal relative to DMSO ([3]; 0.5 uM): 0.9965 | Burkin Assay in Myoblasts, signal relative to DMSO ([3]; 1 uM): 0.9802 | Burkin Assay in Myoblasts, signal relative to DMSO ([3]; 5 uM): 0.934 | Burkin Assay in Myoblasts, signal relative to DMSO ([3]; 10 uM): 0.7825 | Burkin Assay in Myoblasts, signal relative to DMSO ([3]; 20 uM): 0.5631 | Burkin Assay in Myoblasts, signal relative to DMSO ([3]; 40 uM): 0.3911 | Burkin Assay in Myotubes, α7 integrin LacZ reporter signal relative to DMSO ([4]; 0.5 uM): 1.063 | Burkin Assay in Myotubes, α7 integrin LacZ reporter signal relative to DMSO ([4]; 1 uM): 1.029 | Burkin Assay in Myotubes, α7 integrin LacZ reporter signal relative to DMSO ([4]; 5 uM): 1.128 | Burkin Assay in Myotubes, α7 integrin LacZ reporter signal relative to DMSO ([4]; 10 uM): 0.9917 | Burkin Assay in Myotubes, α7 integrin LacZ reporter signal relative to DMSO ([4]; 20 uM): 0.9545 | Burkin Assay in Myotubes, α7 integrin LacZ reporter signal relative to DMSO ([4]; 40 uM): 0.8373

COc1ccc(C(=O)Nc2ccc(Cl)cn2)cc1Cl [MLS000089748-01]
CMV-LACZ in Myoblasts (β-galactosidase activity relative to DMSO) ([1]; 0.5 uM): 1.2129 | CMV-LACZ in Myoblasts (β-galactosidase activity relative to DMSO) ([1]; 1 uM): 0.8592 | CMV-LACZ in Myoblasts (β-galactosidase activity relative to DMSO) ([1]; 5 uM): 1.0665 | CMV-LACZ in Myoblasts (β-galactosidase activity relative to DMSO) ([1]; 10 uM): 0.9905 | CMV-LACZ in Myoblasts (β-galactosidase activity relative to DMSO) ([1]; 20 uM): 0.3140 | CMV-LACZ in Myoblasts (β-galactosidase activity relative to DMSO) ([1]; 40 uM): 0.4437 | CMV-LACZ in Myotubes, signal relative to DMSO ([2]; 0.5 uM): 0.9527 | CMV-LACZ in Myotubes, signal relative to DMSO ([2]; 1 uM): 0.9809 | CMV-LACZ in Myotubes, signal relative to DMSO ([2]; 5 uM): 1.1104 | CMV-LACZ in Myotubes, signal relative to DMSO ([2]; 10 uM): 0.9813 | CMV-LACZ in Myotubes, signal relative to DMSO ([2]; 20 uM): 1.3800 | CMV-LACZ in Myotubes, signal relative to DMSO ([2]; 40 uM): 1.2820 | Burkin Assay in Myoblasts, signal relative to DMSO ([3]; 0.5 uM): 1.145 | Burkin Assay in Myoblasts, signal relative to DMSO ([3]; 1 uM): 1.168 | Burkin Assay in Myoblasts, signal relative to DMSO ([3]; 5 uM): 0.8656 | Burkin Assay in Myoblasts, signal relative to DMSO ([3]; 10 uM): 0.7355 | Burkin Assay in Myoblasts, signal relative to DMSO ([3]; 20 uM): 0.2402 | Burkin Assay in Myoblasts, signal relative to DMSO ([3]; 40 uM): 0.1766 | Burkin Assay in Myotubes, α7 integrin LacZ reporter signal relative to DMSO ([4]; 0.5 uM): 1.043 | Burkin Assay in Myotubes, α7 integrin LacZ reporter signal relative to DMSO ([4]; 1 uM): 0.9139 | Burkin Assay in Myotubes, α7 integrin LacZ reporter signal relative to DMSO ([4]; 5 uM): 0.8675 | Burkin Assay in Myotubes, α7 integrin LacZ reporter signal relative to DMSO ([4]; 10 uM): 0.8026 | Burkin Assay in Myotubes, α7 integrin LacZ reporter signal relative to DMSO ([4]; 20 uM): 0.7715 | Burkin Assay in Myotubes, α7 integrin LacZ reporter signal relative to DMSO ([4]; 40 uM): 0.7415

Reference: US9980943B2, “Methods of treating muscular dystrophy” (BOARD OF REGENTS OF THE NEVADA SYSTEM OF HIGHER EDUCATION, …, priority 2013, dated 2018)
